Results from paper PMC9194530, “Interaction of Colchicine-Site Ligands With the Blood Cell-Specific Isotype of β-Tubulin—Notable Affinity for Benzimidazoles” (Frontiers in Cell and Developmental Biology, 2022).
Read-outs that look alike come from different tables or passages of the source.

Key:
[1] = target: T1, BTb, colchicine site (Bos taurus, UniProt Q6B856); experiment: Single-point MDL competitive binding inhibition screen, brain tubulin; parameters: species or system bovine or rat; settings: for inhibition at 50 µM: read-out: BTb % (inhibition of MDL binding)
T1 construct: from tissue; host or cells: mammalian brain: either rat brain (purified in house) or bovine brain (bought from Cytoskeleton #HTS02-A or Sigma-Aldrich #T4925)

[2] = target: CeTb, colchicine site (Gallus gallus, UniProt P09207); experiment: Single-point MDL competitive binding inhibition screen, erythrocyte tubulin; parameters: species or system chicken (Gallus gallus); settings: for Kd: from single-point data (50 µM drug) fitted with single-site isotherm, Eq. 4, read-out: CeTb Kd(app)
[3] = target: Erythrocyte tubulin (CeTb) (Gallus gallus, UniProt P09207); experiment: Inhibition of taxol-induced tubulin polymerization (absorbance at 350 nm), erythrocyte tubulin; type: biochemical, chicken (Gallus gallus)
Description: (§1) Tubulin was polymerized at a concentration of 2 µM in PM buffer (0.1 M Pipes pH 7, 1 mM MgCl2) + 0.1 mM GTP in a volume of 60 µL. The reaction mixture was transferred to a 10-mm pathlength microcuvette (Hellma United States Inc., Plainview, NY) and placed in the cuvette holder of a SpectraMax M2 Multimode Microplate Reader (Molecular Devices, San Jose, CA) equipped with temperature control set at 37°C for these experiments. Drugs at 20 µM were added directly to the polymerization mixture and incubated for 15 min previous to starting the recordings. Tubulin polymerization kinetics was followed by recording the absorbance at 350 nm. After recording the baseline, tubulin polymerization was induced by the addition of 2 µM paclitaxel (taxol). The final concentration of DMSO in the mixtures was 4%–5% v/v.
(§2) FIGURE 2 Inhibition of tubulin polymerization by colchicine-site drugs. Tubulin from brain (A) or from erythrocytes (B) was incubated at 2 µM in polymerization buffer at 37°C, and the absorbance at 350 nm was registered for 10 min prior to starting the polymerization by the addition of taxol 2 µM (arrow). Drugs were included in polymerization buffer and used at a concentration of 20 µM.

[4] = target: T2, Brain tubulin (BTb) (Bos taurus, UniProt Q6B856); experiment: Inhibition of taxol-induced tubulin polymerization (absorbance at 350 nm), brain tubulin; type: biochemical, bovine or rat; settings: tubulin 2 µM, taxol 2 µM, drugs 20 µM; polymerization with taxol alone = 100%
T2 construct: from tissue; host or cells: mammalian brain: either rat brain (purified in house) or bovine brain (bought from Cytoskeleton #HTS02-A or Sigma-Aldrich #T4925)
Description: as §1, §2

[5] = target: BTb; parameters: method as in Head et al., 1985; settings: read-out: Kd nocodazole, published value; ref Head et al., 1985; cited from earlier work
[6] = target: Erythrocyte tubulin (CeTb), colchicine site (Gallus gallus, UniProt P09207); experiment: biochemical; type: binding, chicken (Gallus gallus)
[7] = target: T3, bovine brain microtubule protein (tubulin plus microtubule-associated proteins) (Bos taurus, UniProt Q6B856); experiment: GTP-induced polymerization of bovine brain microtubule protein (turbidity at 350 nm); type: biochemical; settings: albendazole 12-60 µM, 15 µM microtubule protein, 1 mM GTP, 37 °C, 2% DMSO
T3 construct: from tissue; host or cells: bovine brain; microtubule protein purified by the method of Williams and Lee, 1982
Description: albendazole (ABZ). 15 µM bovine brain microtubule protein (tubulin plus microtubule-associated proteins, purified according to (Williams and Lee, 1982), in PME buffer was incubated with varying concentrations of albendazole for 40 min at room temperature.
The samples were equilibrated to 37 °C in the cell holder of a UV-Vis spectrophotometer (HP8453, Hewlett Packard, Palo Alto, CA). A baseline was recorded before adding GTP to a concentration of 1 mM to induce microtubule assembly. All samples had 2% (v/v) DMSO. The extent of polymerization was determined by the increase of turbidity as measured by the apparent absorbance at 350 nm.

[8] = target: T4, Brain tubulin (BTb), colchicine site (Bos taurus, UniProt Q6B856); experiment: Competition titration with MDL (fluorescence), brain tubulin; type: binding, bovine or rat
T4 construct: from tissue; host or cells: mammalian brain: either rat brain (purified in house) or bovine brain (bought from Cytoskeleton #HTS02-A or Sigma-Aldrich #T4925)

[9] = target: T5, Rat brain tubulin (RBTb) (Rattus norvegicus, UniProt Q3KRE8); experiment: MDL fluorescence dilution titration, rat brain tubulin; type: binding; settings: 1 µM tubulin, PM buffer, 5% DMSO, 25°C; ± standard error of fit
T5 construct: Rat brain tubulin was purified from microtubule protein previously extracted from frozen rat brains; from tissue; host or cells: frozen rat brains; tubulin purified in house from microtubule protein

[10] = target: Chicken brain tubulin (CBTb); experiment: MDL fluorescence dilution titration, chicken brain tubulin; type: binding; settings: 1 µM tubulin, PM buffer, 5% DMSO, 25°C; ± standard error of fit
[11] = target: Chicken erythrocyte tubulin (CeTb) (Gallus gallus, UniProt P09207); experiment: MDL fluorescence dilution titration, chicken erythrocyte tubulin; type: binding
[12] = target: T6, Bovine brain tubulin (BBTb) (Bos taurus, UniProt Q6B856); experiment: MDL fluorescence dilution titration, bovine brain tubulin; type: binding; settings: 1 µM tubulin, PM buffer, 5% DMSO, 25°C; ± standard error of fit
T6 construct: purchased Cytoskeleton, Inc. or Sigma-Aldrich #HTS02-A or #T4925; host or cells: bovine brain

[13] = target: BBTb; parameters: method as in Lin et al., 1989; settings: read-out: Kd combretastatin A4, literature value; ref Lin et al., 1989; cited from earlier work
[14] = target: rat brain tubulin; parameters: method as in Cortese et al., 1977; settings: tritiated podophyllotoxin, ref Cortese et al., 1977, read-out: Kd podophyllotoxin, literature value; cited from earlier work
[15] = competition titration, 1 µM tubulin, 5 µM MDL
[16] = competition titration, 1 µM tubulin, 5 µM MDL, calculated with Equation 4, read-out: Erythrocyte tubulin (CeTb) Kd
[17] = summary of competition titrations with MDL, read-out: Erythrocyte tubulin (CeTb) Kd (Table 4, selected drugs)
[18] = 50 µM drug, 1 µM tubulin, 5 µM MDL, single point
[19] = tubulin 2 µM, taxol 2 µM, drugs 20 µM, polymerization with taxol alone = 100%

COC(=O)Nc1nc2ccc(C(=O)c3cccs3)cc2[nH]1 [Nocodazole]
inhibition at 50 µM [1]: 85%
CeTb % (inhibition of MDL binding) [2]: 96%
Erythrocyte tubulin (CeTb) % inhibition at 30 min [3]: 90%
Brain tubulin (BTb) % inhibition at 60 min [4]: 55%
Kd [5]: 2500 nM

CCCSc1ccc2nc(NC(=O)OC)[nH]c2c1 [Albendazole]
IC50 [6, 15]: 104000 ± 12000 nM
Kd [6, 16]: 35000 ± 4000 nM
Kd [6, 17]: 35000 nM
BTb % (inhibition of MDL binding) [1]: <1%
CeTb % (inhibition of MDL binding) [2, 18]: 35%
Kd [2]: 31000 nM
inhibition of polymerization of BTb [7]: little or no inhibition
inhibition of polymerization of BTb ([7]; listed as albendazole (ABZ)): not significantly inhibited
Brain tubulin (BTb) Kd ([8]; competition titration, 1 µM tubulin, 5 µM MDL, calculated with Equation 4, nb = no binding detected): nb
Brain tubulin (BTb) Kd ([8]; competition titration, 1 µM tubulin, 5 µM MDL, calculated with Equation 4, nb = no binding detected, listed as albendazole): no detectable binding
Brain tubulin (BTb) IC50 ([8]; competition titration, 1 µM tubulin, 5 µM MDL, nb = no binding detected): nb

COc1ccc(OC)c(C(=O)/C(C)=C/c2ccc(N(C)C)cc2)c1 [MDL, (E)-1-(2,5-dimethoxyphenyl)-3-[4-(dimethylamino)phenyl]-2-methylprop-2-en-1-one]
Kd [9]: 450 ± 46 nM
Kd [10]: 510 ± 79 nM
Kd ([11]; 1 µM tubulin, PM buffer, 5% DMSO, 25°C, ± standard error of fit, read-out: Kd,MDL, chicken erythrocytes (CeTb)): 2600 ± 240 nM
MDL affinity for CeTb, fold weaker than to brain tubulins ([11]; direct MDL titration): ~5 fold
Ratio: Kd of MDL and CeTb divided by Kd of MDL and BBTb ([11]; direct MDL titration): 5
Erythrocyte tubulin (CeTb) % inhibition at 30 min [3, 19]: 38%
Brain tubulin (BTb) % inhibition at 60 min [4]: 64%
Kd [12]: 540 ± 82 nM

COc1ccc(/C=C\c2cc(OC)c(OC)c(OC)c2)cc1O [Combretastatin A4, cis-Combretastatin A4]
inhibition at 50 µM [1]: 92%
CeTb % (inhibition of MDL binding) [2]: 64%
Kd [13]: 120 nM

COC(=O)Nc1nc2ccc(C(=O)c3ccccc3)cc2[nH]1 [Mebendazole]
IC50 [6, 15]: 6800 ± 730 nM
Kd [6, 16]: 2300 ± 250 nM
Ratio: Kd of the drug and CeTb divided by the Kd of the drug and BBTb ([6]; ratio >1 = weaker binding to CeTb): 1.9
Kd [6, 17]: 2600 nM
inhibition at 50 µM [1, 18]: 82%
Kd ([1]; from single-point data (50 µM drug) fitted with single-site isotherm, Eq. 4, read-out: BTb Kd(app)): 1000 nM
CeTb % (inhibition of MDL binding) [2, 18]: 90%
Kd [2]: 1800 nM
Erythrocyte tubulin (CeTb) % inhibition at 30 min [3, 19]: 25%
Brain tubulin (BTb) % inhibition at 60 min [4]: 92%
Kd ([8]; competition titration, 1 µM tubulin, 5 µM MDL, calculated with Equation 4, nb = no binding detected, read-out: Brain tubulin (BTb) Kd): 1300 ± 230 nM
IC50 ([8]; competition titration, 1 µM tubulin, 5 µM MDL, nb = no binding detected, read-out: Brain tubulin (BTb) IC50): 14000 ± 2500 nM

COc1cc([C@@H]2c3cc4c(cc3[C@H](O)[C@H]3COC(=O)[C@H]23)OCO4)cc(OC)c1OC [Podophyllotoxin]
Ratio: Kd of the drug and CeTb divided by the Kd of the drug and BBTb [6]: 13
IC50 [6, 15]: 15000 ± 530 nM
Kd [6, 16]: 4900 ± 180 nM
Kd [6, 17]: 4900 nM
Kd [1]: 730 nM
inhibition at 50 µM [1]: 90%
inhibition at 50 µM ([2]; 50 µM drug, 1 µM tubulin, 5 µM MDL, single point, read-out: CeTb % (inhibition of MDL binding)): 81%
Erythrocyte tubulin (CeTb) % inhibition at 30 min [3, 19]: 95%
Brain tubulin (BTb) % inhibition at 60 min [4]: 90%
Kd [14]: 550 nM
IC50 [8]: 4000 ± 1000 nM
Kd ([8]; Brain tubulin (BTb) Kd): 370 ± 35 nM
Kd ([8]; Brain tubulin (BTb) Kd (Table 4, selected drugs)): 370 nM
